For the series, the system named is HepG2 cells. Kind of series: MTS cytotoxicity assay in HepG2 cells. In kind it is cell-based, human. The following applies: 72 h. As for the experimental part:
The cytotoxic potential of SERAAK2 was evaluated in two human-derived cell lines chosen for their physiological relevance: HepG2 (hepatocellular carcinoma) and SH-SY5Y (neuroblastoma). […] It is particularly noteworthy that the use of the SERAAK2 compound at a concentration of 30 µM reduces the number of viable cells below the level of the positive control (doxorubicin) at the same concentration (Table 3). […] Under the experimental conditions used, after 72 h of incubation, a fraction of doxorubicin-treated cells remains metabolically active and generates a low signal in the MTS assay. The enhanced signal reduction observed in the MTS assay for the tested compound, compared to doxorubicin, indicates strong cytotoxic activity leading to necrosis of the entire cell population.
An assessment of the cytotoxic potential of SERAAK2 was carried out utilizing the colorimetric MTS assay. This investigation was executed on both HepG2 and SH-SY5Y cell lines, adhering to an identical procedure. The cell lines, sourced from the American Type Culture Collection (Manassas, VA, USA), were cultured under standard conditions (5% CO2, 37 °C) in DMEM/F12 medium (#31330-038, ThermoFisher Scientific, Waltham, MA, USA). The medium was supplemented with 10% Fetal Bovine Serum (FBS, #A5256801, ThermoFisher Scientific) and a Penicillin–Streptomycin solution (#15140-122, ThermoFisher Scientific) until their use in the study. Cells within passage numbers 15 to 25 were plated in 96-well plates at a density of 5000 cells per well in 200 μL of medium and allowed to adhere during a 24 h incubation at 37 °C with 5% CO2. […] The plates were then subsequently returned to the 37 °C incubator, after which absorbance was recorded with a Spark microplate reader; this measurement occurred after 1 h for the HepG2 line and 3 h for the SH-SY5Y line. The ultimate cell viability percentage was determined by comparing results to the control wells, which represented 100% viability, and the wells treated with 10 μM doxorubicin, which were defined as 0% viability. […]

In the case of `OC(CNCCc1c[nH]c2ccccc12)COc1ccc(Oc2ccccc2)cc1` (stereo not drawn) [SERAAK2], the “cytotoxic effects in HepG2 cells” value (0.3 µM) was “no cytotoxic effects”. For the same compound, the HepG2 cell viability (3 µM) is listed as 85 % of the control. Besides, the “Percentage Reduction in the Number of Viable HepG2 Cells [Mean ± SEM]” value (30 µM) was found to be 104 ± 1%.
